For 17 molecules, IC50 results are on record in US12060349B2, “Glucosylceramide synthase inhibitors” (Genzyme Corporation, priority 2012, dated 2024).

One test has as its system C32 human melanoma cells. Kind of test: cell viability in the C32 cell-based assay (Viability, C32 IC50). The following applies: concentration causing 50% cell death, values greater than 10 represent a lack of cell death. A digest of the protocol: (§1)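 Cell death was scored within the cell-based GM3 experiment for each line. The viability value is the concentration producing 50% death, and numbers exceeding 10 signify no cytotoxicity.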

The target in test [1] is T1, glucosylceramide synthase (Homo sapiens, UniProt Q16739).
T1 construct: Microsomes were isolated from A375 human melanoma cells; endogenous in cells; host or cells: A375 human melanoma cells (microsomal fraction, 100,000 g pellet)
T1 sequence (Q16739 1-394): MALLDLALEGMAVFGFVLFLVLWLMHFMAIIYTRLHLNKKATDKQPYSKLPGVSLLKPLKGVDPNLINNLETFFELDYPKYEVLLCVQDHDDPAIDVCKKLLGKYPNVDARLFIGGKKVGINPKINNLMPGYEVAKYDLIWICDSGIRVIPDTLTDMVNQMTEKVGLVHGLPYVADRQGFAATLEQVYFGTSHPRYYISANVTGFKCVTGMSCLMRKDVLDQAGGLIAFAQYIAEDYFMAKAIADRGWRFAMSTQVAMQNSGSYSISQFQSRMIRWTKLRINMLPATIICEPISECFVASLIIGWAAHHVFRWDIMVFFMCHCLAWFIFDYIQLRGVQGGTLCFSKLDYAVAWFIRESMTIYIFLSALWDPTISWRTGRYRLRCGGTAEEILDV
Kind of test: microsomal assay measuring conversion of ceramide to glucosylceramide by HPLC (GCS IC50). It is filed as biochemical. The following applies: concentration causing 50% inhibition of glucosylceramide synthase activity. The method, boiled down: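 IC50 is the compound concentration halving glucosylceramide synthase activity. Activity was measured in microsomes, with HPLC quantifying glucosylceramide formed from ceramide.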

Test [2] concerns GM3 expression on the cell surface, C32 human melanoma cells. The test can be described thus: cell based phenotypic assay, cell surface GM3 by antibody mediated immunofluorescence, C32 (GM3 C32 IC50). The following applies: Homo sapiens, 50% inhibition of GM3 expression on the cell surface. A digest of the protocol: (§2)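 Two melanoma lines, mouse B16 and human C32, were treated and surface GM3 quantified by antibody immunofluorescence for IC50. A parallel viability readout gives the concentration killing 50% of cells, with values over 10 indicating no cell death.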

A further test relates to B16 mouse melanoma cells. The test can be described thus: cell viability in the B16 cell-based assay (Viability, B16 IC50). A digest of the protocol: as §1
For test [3], the system named is GM3 expression on the cell surface, B16 mouse melanoma cells. Kind of test: cell based phenotypic assay, cell surface GM3 by antibody mediated immunofluorescence, B16 (GM3 B16 IC50). Particulars: Mus musculus, 50% inhibition of GM3 expression on the cell surface. The method, boiled down: as §2
Setting [4] is: Homo sapiens, C32, C32 cells, read-out: Viability, C32 IC50.
Where [5] appears, read: C32 human melanoma cells, read-out: GM3 C32 IC50.
[6] abbreviates: Mus musculus, B16, B16 cells, concentration causing 50% cell death, values greater than 10 represent a lack of cell death, read-out: Viability, B16 IC50.
Where [7] appears, read: B16 mouse melanoma cells, read-out: GM3 B16 IC50.
[8] abbreviates: read-out: GM3 C32 IC50, C32 human melanoma cells.
The mark [9] stands for this setting: read-out: GM3 B16 IC50, B16 mouse melanoma cells.

Molecules are shown by their SMILES. Where two headings read alike, the source gives them in different places.

Usually IC50 stands for the concentration that gives 50% inhibition. Take `COCCOc1ccc(-c2nc(C(C)(C)NC(=O)OC3CCN4CCC3CC4)cs2)cc1` (stereo not shown) [Example 344, 1-Azabicyclo[3.2.2]nonan-4-yl (2-(2-(4-(2-methoxyethoxy)phenyl)thiazol-4-yl)propan-2-yl)carbamate]: the IC50 in the test on C32 human melanoma cells (setting [4]) was 1000 nM; in test [1], 65.8 nM; in test [2] (setting [5]), 8.76 nM; in the test on B16 mouse melanoma cells (setting [6]), at least 10000 nM; in test [3] (setting [7]) it was 56.4 nM.
`CCC1(NC(=O)NC(C)(C)c2ccc(-c3ccc(S(=O)(=O)CCCOC)cc3)cc2)CN2CCC1CC2` (stereo not shown) [Example 243, 1-(3-Ethylquinuclidin-3-yl)-3-(2-(4′-((3-methoxypropyl)sulfonyl)-[1,1′-biphenyl]-4-yl)propan-2-yl)urea]: the IC50 in the test with C32 human melanoma cells (setting [4]) is 3160 nM; in test [1], 32.8 nM; in test [2] (setting [5]) it was 7.49 nM; in the test on B16 mouse melanoma cells (setting [6]) it was at least 10000 nM; in test [3] (setting [7]), 57.3 nM.
For `CC1(NC(=O)C2(F)CCN(c3cncc(Oc4ccc(F)cc4)c3)CC2)CCN2CCC1CC2` (stereo not shown) [Example 127, 4-Fluoro-1-(5-(4-fluorophenoxy)pyridin-3-yl)-N-(4-methyl-1-azabicyclo[3.2.2]nonan-4-yl)piperidine-4-carboxamide], the IC50 came out at 316 nM in the test with C32 human melanoma cells (setting [4]); 2.27 nM in test [1]; 0.569 nM in test [2] (setting [5]); 6980 nM in the test with B16 mouse melanoma cells (setting [6]); 106 nM in test [3] (setting [7]).
Turning to `COCCOCc1ccc(-c2ccnc(N3CCC(F)(C(=O)NC4(C)CCN5CCC4CC5)CC3)n2)cc1` (stereo not shown) [Example 89, 4-Fluoro-1-(4-(4-((2-methoxyethoxy)methyl)phenyl)pyrimidin-2-yl)-N-(4-methyl-1-azabicyclo[3.2.2]nonan-4-yl)piperidine-4-carboxamide], the IC50 in the test with C32 human melanoma cells (setting [4]) came to 316 nM; in test [1] it was 8.23 nM; in test [2] (setting [5]), 1.17 nM; in the test with B16 mouse melanoma cells (setting [6]), 9470 nM; in test [3] (setting [7]), 109 nM.
As for `CNC(=O)c1ccc(Oc2ccc(C(C)(C)NC(=O)OC3CCN4CCC3CC4)cc2)cc1` (stereo not shown) [Example 292, 1-Aza-bicyclo[3.2.2]nonan-4-yl 2-(4-(4-(methylcarbamoyl)phenoxy)phenyl)propan-2-ylcarbamate], the IC50 in the test with C32 human melanoma cells (setting [4]) is at least 10000 nM; in test [1], 207 nM; in test [2] (setting [5]), 41.2 nM; with B16 mouse melanoma cells (setting [6]), at least 10000 nM; in test [3] (setting [7]) it was 1220 nM.
As to `CC1(NC(=O)C2(F)CCN(c3cncc(Oc4ccc(F)cc4)n3)CC2)CCN2CCC1CC2` (stereo not shown) [Example 126, 4-Fluoro-1-(6-(4-fluorophenoxy)pyrazin-2-yl)-N-(4-methyl-1-azabicyclo[3.2.2]nonan-4-yl)piperidine-4-carboxamide], the IC50 in the test on C32 human melanoma cells (setting [4]) turned out to be 1000 nM; in test [1], 1.57 nM; in test [2] (setting [5]), 0.726 nM; with B16 mouse melanoma cells (setting [6]) it was 6260 nM; in test [3] (setting [7]) it was 36 nM.
For `O=C(NC1CN2CCC1CC2)C1(F)CCN(c2nccc(-c3ccc(OCCF)cc3)n2)CC1` (stereo not shown) [Example 87, 4-Fluoro-1-(4-(4-(2-fluoroethoxy)phenyl)pyrimidin-2-yl)-N-(quinuclidin-3-yl)piperidine-4-carboxamide], in that order: 215 nM, 1.91 nM, 0.177 nM, 8910 nM and 64.3 nM.
On to `COCCCOc1ccc(-c2ccc(C3(NC(=O)NC4(C)CCN5CCC4CC5)CC3)cc2)cc1` (stereo not shown) [Example 177, 1-(1-(4′-(3-Methoxypropoxy)-[1,1′-biphenyl]-4-yl)cyclopropyl)-3-(4-methyl-1-azabicyclo[3.2.2]nonan-4-yl)urea], for which the IC50 is at least 10000 nM in the test with C32 human melanoma cells (setting [4]); 1.59 nM in test [1]; 0.497 nM in test [2] (setting [5]); at least 10000 nM in the test on B16 mouse melanoma cells (setting [6]); 1.75 nM in test [3] (setting [7]).
Turning to `COCCOc1cnc(N2CCC(C(=O)NC3(C)CCN4CCC3CC4)CC2)nc1-c1ccc(F)cc1` (stereo not shown) [Example 104, 1-(4-(4-Fluorophenyl)-5-(2-methoxyethoxy)pyrimidin-2-yl)-N-(4-methyl-1-azabicyclo[3.2.2]nonan-4-yl)piperidine-4-carboxamide], the IC50 in the test with C32 human melanoma cells (setting [4]) was 1000 nM; in test [1], 25.1 nM; in test [2] (setting [5]), 3 nM; in the test on B16 mouse melanoma cells (setting [6]), at least 10000 nM; in test [3] (setting [7]), 51.3 nM.
Turning to `CC(C)(NC(=O)OC1CN2CCC1CC2)c1ccc(-c2ccc(CCO)cc2)cc1` (stereo not shown) [Example 226, Quinuclidin-3-yl (2-(4′-(2-hydroxyethyl)-[1,1′-biphenyl]-4-yl)propan-2-yl)carbamate], the IC50 with C32 human melanoma cells (read-out: Viability, C32 IC50, C32 cells) was at least 10000 nM; in test [1] it was 148 nM; in test [2] (setting [8]), 22.3 nM; in the test on B16 mouse melanoma cells (read-out: Viability, B16 IC50, B16 cells, concentration causing 50% cell death, values greater than 10 represent a lack of cell death), at least 10000 nM; in test [3] (setting [9]), 656 nM.
For the molecule `CC1(NC(=O)C2CN(c3nccc(-c4ccc(F)cc4)n3)C2)CCN2CCC1CC2` (stereo not shown) [Example 113, 1-(4-(4-Fluorophenyl)pyrimidin-2-yl)-N-(4-methyl-1-azabicyclo[3.2.2]nonan-4-yl)azetidine-3-carboxamide], the IC50 in the test with C32 human melanoma cells (setting [4]) is 316 nM; in test [1], 8.31 nM; in test [2] (setting [5]), 0.884 nM; in the test with B16 mouse melanoma cells (setting [6]), at least 10000 nM; in test [3] (setting [7]) it was 546 nM.
`COCCCOc1ccc(-c2ccc(C(C)(C)NC(=O)OC3CN4CCC3CC4)cc2)cc1` (stereo not shown) [Example 172, Quinuclidin-3-yl (2-(4′-(3-methoxypropoxy)-[1,1′-biphenyl]-4-yl)propan-2-yl)carbamate]: the IC50 was at least 10000 nM with C32 human melanoma cells (Homo sapiens, C32, read-out: Viability, C32 IC50, C32 cells); 2.41 nM in test [1]; 1.56 nM in test [2] (setting [8]); 8290 nM in the test on B16 mouse melanoma cells (Mus musculus, B16, read-out: Viability, B16 IC50); 66.6 nM in test [3] (setting [9]).
Consider `CC1(NC(=O)C2(F)CCN(c3nccc(-c4ccc(OCCF)cc4)n3)CC2)CN2CCC1CC2` (stereo not shown) [Example 92, 4-Fluoro-1-(4-(4-(2-fluoroethoxy)phenyl)pyrimidin-2-yl)-N-(3-methylquinuclidin-3-yl)piperidine-4-carboxamide], for which the half-maximal inhibitory concentration (IC50) in the test with C32 human melanoma cells (setting [4]) worked out at 100 nM; in test [1], 1.46 nM; in test [2] (setting [5]), 0.106 nM; in the test on B16 mouse melanoma cells (setting [6]) it was 6830 nM; in test [3] (setting [7]), 29 nM.
As to `COCCOCc1ccc(-c2ccc(C3(NC(=O)NC4(C)CN5CCC4CC5)CC3)cc2)cc1` (stereo not shown) [Example 205, 1-(1-(4′-((2-Methoxyethoxy)methyl)-[1,1′-biphenyl]-4-yl)cyclopropyl)-3-(3-methylquinuclidin-3-yl)urea], the IC50 in the test with C32 human melanoma cells (setting [4]) is 1780 nM; in test [1] it was 51.5 nM; in test [2] (setting [5]) it was 5.31 nM; in the test with B16 mouse melanoma cells (setting [6]), at least 10000 nM; in test [3] (setting [7]), 156 nM.
As to `CC1(NC(=O)C2CCN(c3cccc(-c4ccccc4)c3)CC2)CN2CCC1CC2` (stereo not shown) [Example 35, 1-([1,1′-Biphenyl]-3-yl)-N-(3-methylquinuclidin-3-yl)piperidine-4-carboxamide], the IC50 with C32 human melanoma cells (setting [4]) came out at 1000 nM; in test [1] it was 49.6 nM; in test [2] (setting [5]) it was 7.11 nM; in the test on B16 mouse melanoma cells (setting [6]), 7310 nM; in test [3] (setting [7]), 149 nM.
As to `CCC1(NC(=O)NC(C)(C)c2ccc(C(=O)N3CCN(c4ccccc4)CC3)cc2)CN2CCC1CC2` (stereo not shown) [Example 306, 1-(3-Ethylquinuclidin-3-yl)-3-(2-(4-(4-phenylpiperazine-1-carbonyl)phenyl)propan-2-yl)urea], the IC50 was 3160 nM in the test with C32 human melanoma cells (setting [4]); 95.1 nM in test [1]; 32 nM in test [2] (setting [5]); at least 10000 nM with B16 mouse melanoma cells (setting [6]); 257 nM in test [3] (setting [7]).
For `COCCOCc1ccc(-c2ccnc(N3CCC(C(=O)NC4(C)CCN5CCC4CC5)CC3)n2)cc1` (stereo not shown) [Example 74, 1-(4-(4-((2-Methoxyethoxy)methyl)phenyl)pyrimidin-2-yl)-N-(4-methyl-1-azabicyclo[3.2.2]nonan-4-yl)piperidine-4-carboxamide] the same measures were 215 nM, 12.8 nM, 0.71 nM, at least 10000 nM and 32.5 nM.
